This test has as its target T1, TNFα-TNFR1 interaction (Homo sapiens, UniProt P01375).
T1 construct: made in house; host or cells: Escherichia coli (TNFα)
The test can be described thus: ELISA inhibition of TNFα-TNFR1 interaction (immobilized biotinylated TNFα, TNFR1-HRP). It counts as binding. The method, then:
Inhibition of TNFα-TNRF1 interaction by ELISA was carried out as previously described (Lian, W.; et al., supra).
Because of its high-throughput capability, FA analysis had been used to generate all of the SAR data described above. […] To confirm the SAR data obtained by FA analysis, some of the compounds in Table 5 (as well as new compounds) were resynthesized without the Lys(FITC) label and employed a more sensitive ELISA-based assay to determine the IC50 values for inhibition of the TNFα-TNFR1 interaction. Briefly, biotinylated TNFα was immobilized onto a NeutrAvidin-coated surface. TNFR1 conjugated with horseradish peroxidase (HRP) (0.5 nM) was added along with different concentrations of a peptide inhibitor. After washing, the amount of bound TNFR1-HRP was quantitated by ELISA. […] In agreement with the FA results, either extension at the C-terminus of β-Ala with another amino acid (C1-67 to C1-70) or side-chain modification of β-Ala (C1-71 to C1-73) decreased TNFα binding.
In general terms: An ELISA detects its analyte on a solid surface through an enzyme-linked reagent.

[1] abbreviates: Table 5, peptides without Lys(FITC) label.
Where [2] appears, read: inhibition of TNFα-TNFR1 interaction, unlabeled peptides.

Each structure is given as a SMILES string. Starred links: 1 amine or outer side, 2 acyl side, 3 side chain; linkers in the order of their positions; H or OH if unused. Positions of bridges follow the written chain, without caps; N, C: chain ends. Non-standard residues stand in square brackets, D forms with d. Residues, ends and D or L forms follow the SMILES beside them. *: point of attachment. Trimesoyl = O=C(c1cc(C(=O)[*:2])cc(C(=O)[*:3])c1)[*:1]; NH(1S,2S-2-CONH2-cPent) = NC(=O)[C@H]1CCC[C@@H]1N*; β3hV = CC(C)[C@H](N)CC(=O)O; 3Abz = Nc1cccc(C(=O)O)c1; Nle = CCCC[C@H](N)C(=O)O; Dap = NC[C@H](N)C(=O)O; βAla = NCCC(=O)O Bounds are passed on as bounds.

Broadly, the IC50 is the midpoint of a concentration-inhibition curve. The low end stands for greater potency in that assay, the high end for weaker potency in that assay.

`CCCC[C@@H]1NC(=O)c2cc3cc(c2)C(=O)NC[C@@H](C(=O)NCCC(=O)N[C@@H](Cc2ccccc2)C(N)=O)NC(=O)[C@H](Cc2c[nH]cn2)NC(=O)[C@@H](CCCCN)NC(=O)CNC(=O)[C@@H](Cc2c[nH]cn2)NC(=O)[C@H](Cc2c[nH]c4ccccc24)NC(=O)[C@H](CCCCNC3=O)NC(=O)[C@@H](CO)NC(=O)[C@H](Cc2ccc(O)cc2)NC1=O` [Compound C1-69] ([Nle]Y[dS]KW[dH]G[dK]H[Dap][βAla]F-NH2; linker N-4-10 via Trimesoyl): under setting [1], it took 1300 ± 1100 nM to reach half-maximal inhibition (IC50). Same read-out and setting: next, `CCCC[C@@H]1NC(=O)c2cc3cc(c2)C(=O)NC[C@@H](C(=O)N[C@H](CC(N)=O)C(C)C)NC(=O)[C@H](Cc2c[nH]cn2)NC(=O)[C@@H](CCCCN)NC(=O)CNC(=O)[C@@H](Cc2c[nH]cn2)NC(=O)[C@H](Cc2c[nH]c4ccccc24)NC(=O)[C@H](CCCCNC3=O)NC(=O)[C@@H](CO)NC(=O)[C@H](Cc2ccc(O)cc2)NC1=O` [Compound C1-71] ([Nle]Y[dS]KW[dH]G[dK]H[Dap][β3hV]-NH2; linker N-4-10 via Trimesoyl): 2400 ± 1300 nM; `CCCC[C@@H]1NC(=O)c2cc3cc(c2)C(=O)NC[C@@H](C(=O)NCCC(=O)N[C@H](Cc2ccccc2)C(N)=O)NC(=O)[C@H](Cc2c[nH]cn2)NC(=O)[C@@H](CCCCN)NC(=O)CNC(=O)[C@@H](Cc2c[nH]cn2)NC(=O)[C@H](Cc2c[nH]c4ccccc24)NC(=O)[C@H](CCCCNC3=O)NC(=O)[C@@H](CO)NC(=O)[C@H](Cc2ccc(O)cc2)NC1=O` [Compound C1-70] ([Nle]Y[dS]KW[dH]G[dK]H[Dap][βAla][dF]-NH2; linker N-4-10 via Trimesoyl): over 10000 nM.

Under setting [1], `CCCC[C@@H]1NC(=O)c2cc3cc(c2)C(=O)NC[C@@H](C(=O)NCCC(=O)NCCC(N)=O)NC(=O)[C@H](Cc2c[nH]cn2)NC(=O)[C@@H](CCCCN)NC(=O)CNC(=O)[C@@H](Cc2c[nH]cn2)NC(=O)[C@H](Cc2c[nH]c4ccccc24)NC(=O)[C@H](CCCCNC3=O)NC(=O)[C@@H](CO)NC(=O)[C@H](Cc2ccc(O)cc2)NC1=O` [Compound C1-67] ([Nle]Y[dS]KW[dH]G[dK]H[Dap][βAla][βAla]-NH2; linker N-4-10 via Trimesoyl) gave an IC50 of 1500 ± 900 nM. The same measure, in the same setting: next, `CCCC[C@@H]1NC(=O)c2cc3cc(c2)C(=O)NC[C@@H](C(=O)N[C@H]2CCC[C@@H]2C(N)=O)NC(=O)[C@H](Cc2c[nH]cn2)NC(=O)[C@@H](CCCCN)NC(=O)CNC(=O)[C@@H](Cc2c[nH]cn2)NC(=O)[C@H](Cc2c[nH]c4ccccc24)NC(=O)[C@H](CCCCNC3=O)NC(=O)[C@@H](CO)NC(=O)[C@H](Cc2ccc(O)cc2)NC1=O` [Compound C1-72] ([Nle]Y[dS]KW[dH]G[dK]H[Dap]-{NH(1S,2S-2-CONH2-cPent)}; linker N-4-10 via Trimesoyl): 110 ± 30 nM.

For the compound `CCCC[C@@H]1NC(=O)c2cc3cc(c2)C(=O)NC[C@@H](C(=O)NCCC(N)=O)NC(=O)[C@H](Cc2c[nH]cn2)NC(=O)[C@@H](CCCCN)NC(=O)CNC(=O)[C@@H](Cc2c[nH]cn2)NC(=O)[C@H](Cc2c[nH]c4ccccc24)NC(=O)[C@H](CCCCNC3=O)NC(=O)[C@@H](CO)NC(=O)[C@H](Cc2ccc(O)cc2)NC1=O` [Compound C1-66] ([Nle]Y[dS]KW[dH]G[dK]H[Dap][βAla]-NH2; linker N-4-10 via Trimesoyl), the IC50 under setting [2] is 85 nM.

`CCCC[C@@H]1NC(=O)c2cc3cc(c2)C(=O)NC[C@@H](C(=O)Nc2cccc(C(N)=O)c2)NC(=O)[C@H](Cc2c[nH]cn2)NC(=O)[C@@H](CCCCN)NC(=O)CNC(=O)[C@@H](Cc2c[nH]cn2)NC(=O)[C@H](Cc2c[nH]c4ccccc24)NC(=O)[C@H](CCCCNC3=O)NC(=O)[C@@H](CO)NC(=O)[C@H](Cc2ccc(O)cc2)NC1=O` [Compound C1-73] ([Nle]Y[dS]KW[dH]G[dK]H[Dap][3Abz]-NH2; linker N-4-10 via Trimesoyl) yielded an IC50 under setting [1] of 1700 ± 700 nM. `CC(=O)[C@@H](Cc1ccc(O)cc1)NC(=O)[C@@H](CC(=O)O)NC(=O)C(N)CC(=O)O` (some centres unmarked) [Compound C1-74-5] gave an IC50 under setting [2] of 1350 ± 490 nM.

Source of the values: patent US10913773B2, “Bicyclic peptidyl inhibitor of tumor necrosis factor-alpha” (Ohio State Innovation Foundation, priority 2016, dated 2021).
